Experimental data reported in patent US10543212B2, “Substituted amines for treating cardiac diseases” (Cardurion Pharmaceuticals, LLC, priority 2017, dated 2020).
Counter-ions that a name gives are not always drawn.

Each compound was assayed against T1, Human full-length CaMKIIδ (Homo sapiens, UniProt Q13557) (assay: Human CaMKII enzyme inhibition assay (radiometric kinase assay)). Conditions: 3 μM compound; 500 nM ATP; 0.5 nM CaMKIIδ; read-out: CaMKIIδ inhibitory activity (%) at 3 μM.
T1 construct: Human full-length CaMKIIδ (Cat #02-111) was obtained from Carna Biosciences; GST; purchased Carna Biosciences 02-111
Type: biochemical
Description: In Vitro CaMKIIδ Inhibitory Activity was Evaluated by an Enzyme Assay.
Human CaMKII Enzyme Inhibition Assay
Kinase assay for CaMKIIs was performed using the radiometric assay. Human full-length CaMKIIδ (Cat #02-111) was obtained from Carna Biosciences (Kobe, Japan).
Enzyme reactions were performed in 25 mM HEPES, pH 7.5, with 5 mM magnesium chloride, 1 mM calcium chloride, 10 μg/mL Calmodulin, 2 mM DTT, 0.01% Tween20 and 500 nM ATP (0.2 μCi/well of [γ-33P] ATP) containing 0.5 nM CaMKIIδ and 0.1 μM autophosphorylation peptide (KKALRRQETVDAL)(Toray Research Center).
After incubating the enzyme, peptide, and compounds for 5 min, kinase reactions were initiated by adding ATP, followed by incubation for 60 min at room temperature in a total volume of 50 μL. The reactions were terminated by the addition of 10% trichloroacetic acid (final concentration). The [γ-33P]-phosphorylated proteins were filtered in a Harvest Plate (Merck Millipore) with a Cell Harvester (PerkinElmer) and then free [γ-33P] ATP was washed out with 3% phosphoric acid. The plates were dried, followed by the addition of 40 μl of MicroScintO (PerkinElmer). The radioactivity was counted by a TopCount scintillation counter (PerkinElmer). The signals of the reaction without enzyme were defined as 100% inhibitory activity and those of the reaction without inhibitors as 0% inhibitory activity. In vitro CaMKIIδ inhibitory activity was evaluated by % inhibitory activity of 3 μM compound concentration.

Compound | inhibition at 3 µM [%]
COc1ccccc1Nc1ncc(-c2ccc(C#N)c(O[C@@H](C)Cn3cncn3)c2)cn1 [Example 2, 4-(2-((2-methoxy-phenyl)amino)pyrimidin-5-yl)-2-(((2S)-1-(1H-1,2,4-triazol-1-yl)propan-2-yl)oxy)benzonitrile] | 96
COc1cc(N2CCC(N3CCOCC3)CC2)ccc1Nc1ncc(-c2ccc(C#N)c(O[C@@H](C)Cn3ncnn3)c2)cn1 [Example 5, 4-(2-((2-methoxy-4-(4-(morpholin-4-yl)piperidin-1-yl)phenyl)amino)pyrimidin-5-yl)-2-(((2S)-1-(2H-tetrazol-2-yl)propan-2-yl)oxy)benzonitrile] | 98
COc1cc(N2CCC(N3CCOCC3)CC2)ccc1Nc1ncc(-c2ccc(Cl)c(O[C@@H](C)Cn3ccnc3)c2)cn1 [Example 58, 5-(4-chloro-3-(((2S)-1-(1H-imidazol-1-yl)propan-2-yl)oxy)phenyl)-N-(2-methoxy-4-(4-(morpholin-4-yl)piperidin-1-yl)phenyl)pyrimidin-2-amine] | 99
COc1cc(N2CCN(C3COC3)CC2)ccc1Nc1ncc(-c2ccc(Cl)c(O[C@@H](C)Cn3cnnn3)c2)cn1 [Example 197, 5-(4-chloro-3-(((2S)-1-(1H-tetrazol-1-yl)propan-2-yl)oxy)phenyl)-N-(2-methoxy-4-(4-(oxetan-3-yl)piperazin-1-yl)phenyl)pyrimidin-2-amine] | 97
COc1cc(N2CCC(N3CCOCC3)CC2)ccc1Nc1ncc(-c2ccc(C#N)c(O[C@@H](C)Cn3cncn3)c2)cn1 [Example 1, 4-(2-((2-methoxy-4-(4-(morpholin-4-yl)piperidin-1-yl)phenyl)amino)pyrimidin-5-yl)-2-(((2S)-1-(1H-1,2,4-triazol-1-yl)propan-2-yl)oxy)benzonitrile] | 99
COc1cc(N2CCC(N3CCCCC3)CC2)ccc1Nc1ncc(-c2ccc(C#N)c(O[C@@H](C)Cn3cnnn3)c2)cn1 [Example 45, 4-(2-((4-(1,4′-bipiperidine-1′-yl)-2-methoxyphenyl)amino)pyrimidin-5-yl)-2-(((2S)-1-(1H-tetrazol-1-yl)propan-2-yl)oxy)benzonitrile] | 99
COc1cc(C2CCNCC2)ccc1Nc1ncc(-c2ccc(C#N)c(O[C@@H](C)Cn3cncn3)c2)cn1 [Example 50, 4-(2-((2-methoxy-4-(piperidin-4-yl)phenyl)amino)pyrimidin-5-yl)-2-(((2S)-1-(1H-1,2,4-triazol-1-yl)propan-2-yl)oxy)benzonitrile] | 99
COc1cc(C2CCN(CCO)CC2)ccc1Nc1ncc(-c2ccc(C#N)c(O[C@@H](C)Cn3cnnn3)c2)cn1 [Example 160, 4-(2-((4-(1-(2-hydroxyethyl)piperidin-4-yl)-2-methoxy-phenyl)amino)pyrimidin-5-yl)-2-(((2S)-1-(1H-tetrazol-1-yl)propan-2-yl)oxy)benzonitrile] | 99
COc1cc(N2CCC(N3CCOCC3)CC2)ccc1Nc1ncc(-c2ccc(C#N)c(O[C@@H](C)Cn3ccnc3)c2)cn1 [Example 39, 2-(((2S)-1-(1H-imidazol-1-yl)propan-2-yl)oxy)-4-(2-((2-methoxy-4-(4-(morpholin-4-yl)piperidin-1-yl)phenyl)amino)pyrimidin-5-yl)benzonitrile] | 98
COc1cc(C(=O)N2CC3(CN(C)C3)C2)ccc1Nc1ncc(-c2ccc(C#N)c(O[C@@H](C)Cn3cncn3)c2)cn1 [Example 147, 4-(2-((2-methoxy-4-((6-methyl-2,6-diazaspiro[3.3]hept-2-yl)carbonyl)phenyl)ami-no)pyrimidin-5-yl)-2-(((2S)-1-(1H-1,2,4-triazol-1-yl)propan-2-yl)oxy)benzonitrile] | 95
COc1ccccc1Nc1ncc(-c2ccc(C#N)c(O[C@@H](C)Cn3cnnn3)c2)cn1 [Example 16, 4-(2-((2-methoxy-phenyl)amino)pyrimidin-5-yl)-2-(((2S)-1-(1H-tetrazol-1-yl)propan-2-yl)oxy)benzonitrile] | 99
COc1cc(N2CCN(C3COC3)CC2)ccc1Nc1ncc(-c2ccc(C#N)c(O[C@@H](C)Cn3cnnn3)c2)cn1 [Example 192, 4-(2-((2-methoxy-4-(4-(oxetan-3-yl)piperazin-1-yl)phenyl)ami-no)pyrimidin-5-yl)-2-(((2S)-1-(1H-tetrazol-1-yl)propan-2-yl)oxy)benzonitrile] | 99
COc1cc(C(=O)N2CC3(CN(C)C3)C2)ccc1Nc1ncc(-c2ccc(C#N)c(O[C@@H](C)Cn3cnnn3)c2)cn1 [Example 172, 4-(2-((2-methoxy-4-((6-methyl-2,6-diazaspiro[3.3]hept-2-yl)carbonyl)phenyl)ami-no)pyrimidin-5-yl)-2-(((2S)-1-(1H-tetrazol-1-yl)propan-2-yl)oxy)benzonitrile] | 100
COc1cc(CNC2CC2)ccc1Nc1ncc(-c2ccc(C#N)c(O[C@@H](C)Cn3cnnn3)c2)cn1 [Example 52, 4-(2-((4-((cyclopropylami-no)methyl)-2-methoxy-phenyl)amino)pyrimidin-5-yl)-2-(((2S)-1-(1H-tetrazol-1-yl)propan-2-yl)oxy)benzonitrile hydrochloride] | 100
COc1cc(N2CCC(N3CCOCC3)CC2)ccc1Nc1ncc(-c2ccc(Cl)c(O[C@@H](C)Cn3cnnn3)c2)cn1 [Example 60, 5-(4-chloro-3-(((2S)-1-(1H-tetrazol-1-yl)propan-2-yl)oxy)phenyl)-N-(2-methoxy-4-(4-(morpholin-4-yl)piperidin-1-yl)phenyl)pyrimidin-2-amine] | 99
COc1cc(CNC2CC2)ccc1Nc1ncc(-c2ccc(C#N)c(O[C@@H](C)Cn3cncn3)c2)cn1 [Example 33, 4-(2-((4-((cyclopropylami-no)methyl)-2-methoxy-phenyl)amino)pyrimidin-5-yl)-2-(((2S)-1-(1H-1,2,4-triazol-1-yl)propan-2-yl)oxy)benzonitrile dihydrochloride] | 98

Second part, the compound after the results:

inhibition at 3 µM [%] | Compound
96 | C[C@@H](Cc1ccn[nH]1)Oc1cc(-c2cnc(Nc3cnn(C)c3)nc2)ccc1C#N [Example 412, 4-(2-((1-methyl-1H-pyrazol-4-yl)amino)pyrimidin-5-yl)-2-(((2S)-1-(1H-pyrazol-5-yl)propan-2-yl)oxy)benzonitrile]
97 | COc1nn(C)cc1Nc1ncc(-c2ccc(C#N)c(O[C@@H](C)Cn3cncn3)c2)cn1 [Example 375, 4-(2-((3-methoxy-1-methyl-1H-pyrazol-4-yl)amino)pyrimidin-5-yl)-2-(((2S)-1-(1H-1,2,4-triazol-1-yl)propan-2-yl)oxy)benzonitrile]
97 | C[C@@H](Cn1cncn1)Oc1cc(-c2cnc(Nc3cnn(CC(F)(F)F)c3)nc2)ccc1C#N [Example 362, 2-(((2S)-1-(1H-1,2,4-triazol-1-yl)propan-2-yl)oxy)-4-(2-((1-(2,2,2-trifluoroethyl)-1H-pyrazol-4-yl)amino)pyrimidin-5-yl)benzonitrile]
98 | C[C@@H](Cn1cncn1)Oc1cc(-c2cnc(Nc3cnn(C(C)(C)C)c3)nc2)ccc1C#N [Example 373, 4-(2-((1-tert-butyl-1H-pyrazol-4-yl)amino)pyrimidin-5-yl)-2-(((2S)-1-(1H-1,2,4-triazol-1-yl)propan-2-yl)oxy)benzonitrile]
98 | COc1cc(N2CCN(C3COC3)CC2)c(F)cc1Nc1ncc(-c2ccc(Cl)c(O[C@@H](C)Cn3cnnn3)c2)cn1 [Example 211, 5-(4-chloro-3-(((2S)-1-(1H-tetrazol-1-yl)propan-2-yl)oxy)phenyl)-N-(5-fluoro-2-methoxy-4-(4-(oxetan-3-yl)piperazin-1-yl)phenyl)pyrimidin-2-amine]
99 | C[C@@H](Cn1cnnn1)Oc1cc(-c2cnc(Nc3cn(C)nc3C(F)(F)F)nc2)ccc1C#N [Example 380, 4-(2-((1-methyl-3-(trifluoromethyl)-1H-pyrazol-4-yl)amino)pyrimidin-5-yl)-2-(((2S)-1-(1H-tetrazol-1-yl)propan-2-yl)oxy)benzonitrile]
97 | CC(C)n1cc(Nc2ncc(-c3ccc(C#N)c(O[C@@H](C)Cn4cnnn4)c3)cn2)cn1 [Example 374, 4-(2-((1-isopropyl-1H-pyrazol-4-yl)amino)pyrimidin-5-yl)-2-(((2S)-1-(1H-tetrazol-1-yl)propan-2-yl)oxy)benzonitrile]
97 | C[C@@H](Cn1cncn1)Oc1cc(-c2cnc(Nc3cn(C)nc3C(F)(F)F)nc2)ccc1C#N [Example 376, 4-(2-((1-methyl-3-(trifluoromethyl)-1H-pyrazol-4-yl)amino)pyrimidin-5-yl)-2-(((2S)-1-(1H-1,2,4-triazol-1-yl)propan-2-yl)oxy)benzonitrile]
100 | COc1cc(N2CCC(N3C[C@H]4CC[C@@H](C3)O4)CC2)ccc1Nc1ncc(-c2ccc(Cl)c(O[C@@H](C)Cn3cnnn3)c2)cn1 [Example 213, 5-(4-chloro-3-(((2S)-1-(1H-tetrazol-1-yl)propan-2-yl)oxy)phenyl)-N-(2-methoxy-4-(4-((1R,5S)-8-oxa-3-azabicyclo[3.2.1]oct-3-yl)piperidin-1-yl)phenyl)pyrimidin-2-amine]
